Legend:
[1] = tested on: Hepa 1-6 (mouse liver hepatoma); assay: In vitro cell proliferation assay ([3H]-thymidine); assay type: cell-based; details: 10 μM, no antioxidant
Protocol: (§4) In vitro cell proliferation assays were carried out on the following cell lines: CT26 (mouse colon carcinoma, ATCC (American Type Culture Collection) No. 2638), Hepa 1-6 (mouse liver hepatoma, ATCC No. 1830), A549 (human lung carcinoma, ATCC No. 185).
(§5) The cell proliferation is determined by incubating the cells for 16 hours with [^3H]-thymidine (1 μCi/well).

[2] = tested on: CT26 (mouse colon carcinoma); assay: In vitro cell proliferation assay ([3H]-thymidine); assay type: cell-based; details: 10 μM, no antioxidant
Protocol: as §4, §5

[3] = tested on: A549 (human lung carcinoma); assay: In vitro cell proliferation assay ([3H]-thymidine); assay type: cell-based; details: 10 μM, no antioxidant
Protocol: as §4, §5

[4] = tested on: Hepa 1-6 tumor cells; assay: In vitro viability test (MTT); assay type: cell-based, mouse; details: 10 μM, no antioxidant
Protocol: (§6) In vitro viability tests, in response to the treatment with NAC, CuDIPS, MnTBAP or MnDPDP, were carried out on the cell lines of Example 1 and on normal human leukocytes. The latter were obtained from normal volunteers, after informed consent, by taking venous blood samples collected on an anticoagulant (lithium-heparinate). The red blood cells were lysed by osmotic shock using a hypotonic solution of potassium acetate and the leukocytes were cultured under the conditions described in Example 1.
(§7) For the viability test, the cells (2×10^4 cells/well) were seeded into 96-well plates (COSTAR, Corning Inc. NY, USA) and incubated for 48 hours in complete medium supplemented with increasing concentrations, from 0 to 400 μm, of NAC, of MnTBAP, of CuDIPS or of MnDPDP. The cell viability was evaluated by reduction of a methylthiazoletetrazolium salt (MTT; SIGMA) into formazan. The cells were exposed to 20 μl of MTT (5 mg/ml in PBS) and incubated for 4 h at 37° C. 150 μl of medium were then removed from each well and the reaction was visualized by the addition of 100 μl of DMSO (SIGMA). The absorbance was analyzed for each well at 550 nm and at 630 nm with an ELISA plate reader. The number of viable cells was determined by the difference between the absorbance at 550 nm and the absorbance at 630 nm.
(§8) The viability tests were carried out on the CT26, Hepa 16 and A549 tumor lines, and on normal human leukocytes, according to the protocol described in Example 2.

[5] = tested on: CT26 tumor cells; assay: In vitro viability test (MTT); assay type: cell-based, mouse; details: 10 μM, no antioxidant
Protocol: as §6, §7, §8

[6] = tested on: A549 tumor cells; assay: In vitro viability test (MTT); assay type: cell-based, human; details: 10 μM, no antioxidant
Protocol: as §6, §7, §8

[7] = tested on: CT26 carcinoma tumor cells in BALB/c mice; assay: In vivo antitumor activity, subcutaneous CT26 tumors; design: species or system mouse; details: single injection of 20 mg/kg
Protocol: (§1) The in vivo antitumor activity of various antioxidant treatments was estimated. For these experiments, female six- to eight-week-old BALB/c (for the injection of CT-26 tumor cells) or C57/BL6 (for the injection of Hepa 1-6 tumor cells) mice were used (IFFA CREDO, L'Arbresles, France). Two million tumor cells were injected into the back of the animals subcutaneously. When the size of the tumor reached 200 to 500 mm^3, the animals were given a single injection of 20 mg/kg of oxaliplatin (ELOXATIN®) or of a saline solution.
(§2) The mice were then treated intraperitoneally, two hours after the injection of oxaliplatin or of saline solution, with 10 mg/kg of mangafodipir, of MnTBAP or of CuDIPS, or with 150 mg/kg of NAC, or with a saline solution. The injection of the various antioxidants was continued for one month (three injections per week at the same doses). A group of mice inoculated with tumor cells was not treated.
(§3) The size of the tumors was measured every three days. The tumor volume was calculated as follows: VT (mm^3)=(L×W^2)/2, where L is the longest dimension and W the shortest dimension of the tumor in mm. Fifteen mice were included in each group.

[8] = tested on: Hepa 1-6 cells in C57BL/6 mice; assay: In vivo antitumor activity, subcutaneous Hepa 1-6 tumors; design: species or system mouse; details: single injection of 20 mg/kg
Protocol: as §1, §2, §3

[9] = tested on: normal human leukocytes; assay: In vitro viability test (MTT); details: 1 mM, no antioxidant
Protocol: as §6, §7, §8

[10] = tested on: plasmid pcDNA3.1; assay: Plasmid DNA alteration (agarose gel electrophoresis, densitometry); details: 37° C., 24 h; SOD mimetics 5 μM; oxaliplatin maximum at DNA/oxaliplatin ratio 0.5
Protocol: The purified plasmid pcDNA3.1 (INVITROGEN) was used to analyze the potential DNA alterations in response to the addition of molecules used in cancer chemotherapy in the presence, or in the absence, of antioxidant enzyme modulators. This DNA was then stored at −20° C. in 10 mM TRIS, 1 mM EDTA until its use.
The plasmid DNA was incubated with oxaliplatin at a molar ratio of 0.50 in a final volume of 50 μl. MnTBAP (5 μM), CuDIPS (5 μM), mangafodipir (5 μM) or NAC (5 mM) were then added to the solution. The production of superoxide anion was realized by the addition of 200 μM xanthine (SIGMA) and 1 U of xanthine oxidase (SIGMA). The incubation was carried out in the dark at 37° C. for 24 h. At the end of the incubation period, 10 μl aliquots were subjected to 0.8% agarose gel electrophoresis and detected by ethidium bromide staining. The gels were then analyzed by densitometry (VILBER LOURMAT, Marnes-la-Vallée, France).

N[C@@H]1CCCC[C@H]1N.O=C([O-])C(=O)[O-].[Pt+2] [oxaliplatin, [(1R,2R)-1,2-cyclohexanediamine-N,N′][oxalate-(2-)—O,O′]platinum (II)]
decrease in tumor cell proliferation, antitumor agent alone [1]: 70% | decrease in tumor cell proliferation, antitumor agent alone [2]: 91% | decrease in tumor cell proliferation, antitumor agent alone [3]: 93% | decrease in cell viability, antitumor agent alone, on average [4]: 50% | decrease in cell viability, antitumor agent alone, on average [5]: 27% | decrease in cell viability, antitumor agent alone, on average [6]: 28% | tumor volumes compared with the nontreated animals [7]: divides the tumor volumes in half | tumor volumes compared with the nontreated animals [8]: divides the tumor volumes by four | decrease in viability of normal leukocytes, antitumor agent alone [9]: approximately 50% | effect on the structure of plasmid DNA (form I / II / III) [10]: dose-dependent impairment

Reference: US20070148154A1, “Use of superoxide dismutase mimetics and reductase gultatione in the form of anticancer drugs” (UNIVERSITE RENE DESCARTES (PARIS V), priority 2004, published 2007)
